Where a name gives a salt, the structure may show the parent alone. Read-outs that look alike come from different tables or passages of the source.
Assays:
[1] = biological target: LAT1 (Homo sapiens (Human), UniProt Q01650); assay: LAT1 uptake inhibition assay: [3H]-gabapentin competition uptake in LN229 cells; type: cell-based; settings: [3H]-gabapentin uptake
Experimental: LAT1 Uptake Inhibition Assay
The ability of compounds to interact with LAT1 was measured using a radiolabeled competition uptake assay with [^3H]-Gabapentin ([^3H]-GP) (Perkin Elmer) in 96-well plates with LN229 cells (ATCC®). Ten (10)×10^3 (10,000) cells/well were plated in white, clear bottom plates and were allowed to grow for three (3) days. On the fourth day, the cells were washed and then incubated with 50,000 counts per minute (cpm) of [^3H]-GP in phosphate buffered saline (PBS) (VWR International) with increasing concentrations of test compounds in at least triplicate for 15 min. At end of the assay time, the incubation solution was removed, and plates were washed three times (3×) with 100 μL of ice-cold PBS buffer. One-hundred fifty (150) […] of scintillation fluid (VWR International) was added to each well, and the radioactivity retained within the cells was measured on a 96-well scintillation counter. Background uptake ([^3H]-GP uptake in the presence of 10 mM non-radiolabeled gabapentin (GP)) (MedKoo) was subtracted and data were normalized to the DMSO control ([^3H]-GP uptake in the absence of any competitor). Data were fitted to the Michaelis-Menten equation using GraphPad Prism (Version 8.2.0).

[2] = tested on: LN229 cells; assay: Amino acid starvation assay: antiproliferation assay with LN229 cells (CellTiter-Glo); type: cell-based; settings: F12K medium, six days
Experimental: Amino Acid Starvation Assay
The ability of compounds to inhibit amino acid uptake interact with LAT1 was measured using an antiproliferation assay with LN229 cells (ATCC®). LN229 cells were cultured in DMEM medium (VWR International). Two (2)×10^3 (2,000) cells/well were plated in clear bottom 96-well plates (CellBIND®, Corning 3340) and were allowed to attach overnight. The next day, cells were washed once with PBS buffer (VWR International). F12K medium ([…]) (VWR International) with increasing concentrations of test compounds in at least triplicate was added. Cells were incubated for six (6) days at 37° C. and 5% CO2. At end of the assay, 140 μL of supernatant medium were removed from each well and 60 μL of CellTiter-Glo® (Promega) were added. Cell lysis was induced by placing the plates for three (3) minutes on an orbital shaker. Plates were incubated for 10 min at 25° C. to stabilize the luminesce signal. Luminescence was recorded using an EnSpire® Multimode Plate Reader (Perkin Elmer). Background (luminescence from wells incubated in the presence of 100 µM of commercial LAT1 inhibitor JPH203 (MedKoo) was subtracted, and data were normalized to the DMSO control (proliferation in the absence of any competitor). Data were fitted to the Michaelis-Menten equation using GraphPad Prism (Version 8.2.0).

[3] = Table 1, read-out: LAT1 inhibition IC50 (nM ± SE)
[4] = 15 min incubation in PBS, read-out: IC50, the concentration of test compound at which the [3H]-GP uptake was inhibited by 50%
[5] = Homo sapiens, LN-229, 144 h, Table 1, read-out: Anti-proliferation LC50 (μM ± SE)
[6] = Homo sapiens, LN-229, 144 h, read-out: LC50, the concentration of test compound at which the proliferation was inhibited by 50%

Chain of LAT1 (Q01650 whole entry): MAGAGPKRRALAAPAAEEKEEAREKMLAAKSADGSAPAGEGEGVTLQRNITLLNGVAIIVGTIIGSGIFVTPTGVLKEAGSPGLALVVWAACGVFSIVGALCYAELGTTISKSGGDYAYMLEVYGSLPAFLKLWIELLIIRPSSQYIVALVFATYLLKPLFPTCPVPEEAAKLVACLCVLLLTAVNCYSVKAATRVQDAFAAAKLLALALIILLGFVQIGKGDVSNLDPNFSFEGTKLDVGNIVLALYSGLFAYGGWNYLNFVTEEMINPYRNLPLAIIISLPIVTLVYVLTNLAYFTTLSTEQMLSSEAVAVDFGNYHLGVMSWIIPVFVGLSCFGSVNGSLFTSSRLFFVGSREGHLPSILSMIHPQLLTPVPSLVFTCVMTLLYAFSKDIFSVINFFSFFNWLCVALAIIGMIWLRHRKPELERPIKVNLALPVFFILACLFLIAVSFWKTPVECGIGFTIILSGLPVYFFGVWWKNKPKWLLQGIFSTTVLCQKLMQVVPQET
Chain of LAT1 (P08195 whole entry partner): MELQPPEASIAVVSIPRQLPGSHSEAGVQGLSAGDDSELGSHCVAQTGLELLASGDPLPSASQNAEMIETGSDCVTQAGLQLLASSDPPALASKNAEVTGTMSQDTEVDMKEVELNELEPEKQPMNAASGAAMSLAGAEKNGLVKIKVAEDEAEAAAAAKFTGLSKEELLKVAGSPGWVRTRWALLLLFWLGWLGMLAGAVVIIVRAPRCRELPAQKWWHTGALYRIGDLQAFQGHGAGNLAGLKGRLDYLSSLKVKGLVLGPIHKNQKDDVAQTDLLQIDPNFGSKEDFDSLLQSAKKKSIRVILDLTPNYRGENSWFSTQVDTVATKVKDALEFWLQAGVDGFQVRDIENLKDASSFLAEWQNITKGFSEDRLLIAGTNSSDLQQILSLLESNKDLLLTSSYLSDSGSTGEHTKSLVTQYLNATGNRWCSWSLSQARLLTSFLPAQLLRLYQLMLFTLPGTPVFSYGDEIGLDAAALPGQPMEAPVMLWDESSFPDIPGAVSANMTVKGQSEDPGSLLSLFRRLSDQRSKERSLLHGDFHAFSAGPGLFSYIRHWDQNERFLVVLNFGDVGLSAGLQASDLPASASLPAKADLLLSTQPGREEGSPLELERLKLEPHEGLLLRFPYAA

Row | Structure (SMILES) | IC50 [1, 3] | CC50 ([2]; Table 1, read-out: Anti-proliferation LC50 (μM ± SE)) | IC50 [1, 4] | CC50 [2, 5] | CC50 [2, 6] | IC50 ([1]; read-out: IC50 in the LAT1 uptake inhibition assay)
1 | Cc1ccc(S(=O)(=O)Nc2ccccc2)cc1C[C@H](N)C(=O)O [Compound 35, (S)-2-Amino-3-(2-methyl-5-(N-phenylsulfamoyl)phenyl)propanoic Acid Hydrochloride] | 30 ± 8 nM | 40 ± 10 µM |  |  |  | 
2 | Cc1ccc(NS(=O)(=O)c2cccc(-c3ccccc3)c2)cc1C[C@H](N)C(=O)O [Compound 38, (S)-3-(5-([1,1′-Biphenyl]-3-sulfonamido)-2-methylphenyl)-2-aminopropanoic Acid] | 40 ± 10 nM |  | 20 to 100 nM | 52 ± 2 µM | 30 to 100 µM | 
3 | Cc1ccc(S(=O)(=O)Nc2cccc3ccccc23)cc1C[C@H](N)C(=O)O [Compound 39, (S)-2-Amino-3-(2-methyl-5-(N-(naphthalen-1-yl)sulfamoyl)phenyl)propanoic Acid] | 24 ± 9 nM |  | 20 to 100 nM | 32 ± 2 µM | 30 to 100 µM | 
4 | Cc1ccc(S(=O)(=O)Nc2ccc(-c3ccccc3)cc2)cc1C[C@H](N)C(=O)O [Compound 40, (S)-3-(5-(N-([1,1′-Biphenyl]-4-yl)sulfamoyl)-2-methylphenyl)-2-aminopropanoic Acid] | 25 ± 8 nM |  | 20 to 100 nM | 60 ± 20 µM | 30 to 100 µM | 
5 | CCCCNS(=O)(=O)c1ccc(C)c(C[C@H](N)C(=O)O)c1 [Compound 41, (S)-2-Amino-3-(5-(N-butylsulfamoyl)-2-methylphenyl)propanoic Acid] | 56 ± 9 nM |  | 20 to 100 nM | 36 ± 10 µM | 30 to 100 µM | 
6 | COc1ccc(NS(=O)(=O)c2ccc(C)c(C[C@H](N)C(=O)O)c2)cc1 [Compound 44, (S)-2-Amino-3-(5-(N-(4-methoxyphenyl)sulfamoyl)-2-methylphenyl)propanoic Acid] | 10 ± 3 nM |  | ≤ 20 nM | 20 ± 6 µM | < 30 µM | 
7 | Cc1ccc(S(=O)(=O)Nc2cccc3c(N(C)C)cccc23)cc1C[C@H](N)C(=O)O [Compound 49, (S)-2-Amino-3-(5-(N-(5-(dimethylamino)naphthalen-1-yl)sulfamoyl)-2-methylphenyl)propanoic Acid] | 80 ± 20 nM |  | 20 to 100 nM | 100 ± 10 µM | ≥ 100 µM | 
8 | Cc1ccc(S(=O)(=O)Nc2ccc(Cl)cc2)cc1C[C@H](N)C(=O)O [Compound 52, (S)-2-Amino-3-(5-(N-(4-chlorophenyl)sulfamoyl)-2-methylphenyl)propanoic Acid] | 12 ± 2 nM |  | ≤ 20 nM | 9.7 ± 0.7 µM | < 30 µM | 
9 | Cc1ccc(S(=O)(=O)NC2CCCCC2)cc1C[C@H](N)C(=O)O [Compound 53, (S)-2-Amino-3-(5-(N-cyclohexylsulfamoyl)-2-methylphenyl)propanoic Acid] | 60 ± 10 nM |  | 20 to 100 nM | 100 ± 10 µM | ≥ 100 µM | 
10 | Cc1ccc(S(=O)(=O)Nc2cccc(Br)c2)cc1C[C@H](N)C(=O)O [Compound 76, (S)-2-Amino-3-(5-(N-(3-bromophenyl)sulfamoyl)-2-methylphenyl)propanoic Acid] | 9 ± 3 nM |  | ≤ 20 nM | 11 ± 1 µM | < 30 µM | 
11 | Cc1ccc(S(=O)(=O)Nc2ccc(Br)cc2)cc1C[C@H](N)C(=O)O [Compound 77, (S)-2-Amino-3-(5-(N-(4-bromophenyl)sulfamoyl)-2-methylphenyl)propanoic Acid] | 12 ± 4 nM |  | ≤ 20 nM | 13 ± 1 µM | < 30 µM | 
12 | N[C@@H](Cc1cccc(S(=O)(=O)Nc2ccc(Cl)cc2)c1)C(=O)O [Compound 79, (S)-2-Amino-3-(3-(N-(4-chlorophenyl)sulfamoyl)phenyl)propanoic Acid] | 80 ± 10 nM |  | 20 to 100 nM | 100 ± 20 µM | ≥ 100 µM | 
13 | Cc1ccc(S(=O)(=O)Nc2ccc(Cl)cc2)cc1C[C@H](N)C(=O)OC(C)(C)C [Compound 82, tert-Butyl (S)-2-amino-3-(5-(N-(4-chlorophenyl)sulfamoyl)-2-methylphenyl)propanoate] |  |  | 20 to 100 nM |  | ≥ 100 µM | 
14 | CC(C)c1ccc(S(=O)(=O)Nc2ccc(Cl)cc2)cc1C[C@H](N)C(=O)O [Compound 86, (S)-2-Amino-3-(5-(N-(4-chlorophenyl)sulfamoyl)-2-isopropylphenyl)propanoic Acid] | 10 ± 1 nM |  | ≤ 20 nM | 4 ± 0.7 µM | < 30 µM | 
15 | Cc1ccc(NS(=O)(=O)c2ccc(C(C)(C)C)cc2)cc1C[C@H](N)C(=O)O [Compound 87, (S)-2-Amino-3-(5-((4-(tert-butyl)phenyl)sulfonamido)-2-methylphenyl)propanoic Acid] | 100 ± 20 nM |  | 20 to 100 nM | 100 ± 20 µM | ≥ 100 µM | 
16 | Nc1cc(COc2c(Cl)cc(C[C@H](N)C(=O)O)cc2Cl)c2oc(-c3ccccc3)nc2c1 [JPH203, (S)-2-Amino-3-(4-((5-amino-2-phenylbenzo[d]oxazol-7-yl)methoxy)-3,5-dichlorophenyl)propanoic Acid, reference compound] |  |  |  |  | 20 ± 10 µM | 19 ± 6 nM

— patent US20250319046A1, “PHENYLALANINE-BASED LAT1 INHIBITORS AND USES THEREOF” (MAXYMUNE THERAPEUTICS, INC., priority 2024, published 2025)
